Results taken from US7084136B2, “Drug composition antagonistic to both PGD2/TXA2 receptors” (Shionogi & Co., Ltd., priority 2000, dated 2006).

How the values were obtained:
[1] = Change of plasma concentration of drug in rat (half life of the disappearance after i.v. administration); format: in vivo; details: Jcl-SD male rats, 0.5 to 2 mg/kg intravenously, unchanged compound
Experimental: Experiment 4 Change of Plasma Concentration of Drug in Rat
Compound (0.5 to 2 mg/kg) was administered intravenously to Jcl-SD male rats.

[2] = target: T1, TXA2 receptor (Homo sapiens, UniProt P21731); assay: Binding activity to TXA2 receptor ([3H](+)-S-145 sodium salt, human platelet membrane fraction); details: human platelet membrane fraction; 2 nM [3H](+)-S-145 sodium salt; read-out: Binding activity to TXA2 receptor in human platelet membrane fraction IC50
T1 construct: The human platelet membrane fraction was prepared in accordance with Experiment 1 (1); from tissue; host or cells: human platelet membrane fraction from blood of healthy volunteers
T1 sequence (P21731 1-343): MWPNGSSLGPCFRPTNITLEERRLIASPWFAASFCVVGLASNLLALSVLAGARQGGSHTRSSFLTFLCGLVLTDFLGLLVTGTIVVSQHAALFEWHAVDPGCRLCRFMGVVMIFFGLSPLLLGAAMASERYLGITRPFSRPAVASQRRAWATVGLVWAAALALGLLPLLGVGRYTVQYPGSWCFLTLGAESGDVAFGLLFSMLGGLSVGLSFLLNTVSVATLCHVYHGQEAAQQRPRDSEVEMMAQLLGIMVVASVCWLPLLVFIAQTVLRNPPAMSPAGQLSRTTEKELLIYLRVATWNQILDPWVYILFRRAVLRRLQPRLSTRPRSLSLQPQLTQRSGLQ
Experimental: Experiment 2 Binding Activity to TXA2 Receptor
(§1) (1) Preparation of Human Platelet Membrane Fraction
The human platelet membrane fraction was prepared in accordance with Experiment 1 (1).
(2) Binding to TXA2 Receptor
To a binding-reaction solution (50 mM Tris/HCl, pH 7.4, 10 mM MgCl2) (0.2 ml) were added the human platelet membrane fraction (0.05 mg) and 2 nM Sodium [^3H](+)-(5Z)-7-[3-endo-[(phenylsulfonyl)amino]bicyclo[2.2.1]hept-2-exo-yl]heptenoate (Japanese Patent Publication (Kokoku) No.79060/1993, hereinafter referred to as (+)-S-145 sodium salt) (26.4 Ci/mmol), and the mixture was reacted at room temperature for 90 min. After the reaction, the resultant mixture was filtered through a glass fiber filter paper and washed several times with cooled physiological saline, then the radioactivity retained on the filter paper was measured. The specific-binding ratio was calculated by subtracting the non-specific binding ratio (the radio activity similarly determined in the presence of 10 μM (+)-S-145 sodium salt) from the total binding. The inhibitory activity of each compound was expressed as the concentration required for 50% inhibition (IC50), which was determined by depicting a substitution curve by plotting the binding ratio (%) in the presence of each compound, where the binding ratio in the absence of a test compound is 100%.

[3] = target: T2, PGD2 receptor (Homo sapiens, UniProt Q13258); assay: Binding activity to PGD2 receptor ([3H]PGD2, human platelet membrane fraction); details: human platelet membrane fraction; read-out: Binding activity to PGD2 receptor in human platelet membrane fraction IC50
T2 construct: A suspension adjusted to contain the platelets at a final concentration of 5×10^8/ml was warmed at 37° C; endogenous in cells; host or cells: washed human platelets from a healthy volunteer
T2 sequence (Q13258 1-359): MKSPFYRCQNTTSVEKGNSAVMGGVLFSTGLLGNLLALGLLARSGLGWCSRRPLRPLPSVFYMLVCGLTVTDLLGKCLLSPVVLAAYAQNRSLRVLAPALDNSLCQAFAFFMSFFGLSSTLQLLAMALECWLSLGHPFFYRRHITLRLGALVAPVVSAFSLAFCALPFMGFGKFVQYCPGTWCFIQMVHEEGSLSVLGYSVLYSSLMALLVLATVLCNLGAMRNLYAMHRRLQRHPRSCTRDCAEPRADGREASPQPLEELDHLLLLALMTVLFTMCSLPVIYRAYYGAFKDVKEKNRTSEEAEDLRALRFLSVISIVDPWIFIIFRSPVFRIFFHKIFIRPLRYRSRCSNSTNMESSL
Experimental: Experiment 1 Binding Activity to PGD2 Receptor
as §1
Blood was collected using a plastic syringe containing 3.8% sodium citrate from the vein of healthy volunteers (adult male and female), then put into a plastic test tube and mixed by slow-reversion. The sample was then centrifuged at 1800 rpm, for 10 min at room temperature, and the supernatant containing PRP (platelet-rich plasma) was collected. The PRP was re-centrifuged at 2300 rpm, for 22 min at room temperature to obtain platelets. The platelets were homogenized using a homogenizer (Ultra-Turrax) followed by centrifugation 3 times at 20,000 rpm, 10 min at 4° C. to obtain a platelet membrane fraction. After protein determination, the membrane fraction was adjusted to 2 mg/ml and preserved in a refrigerator at −80° C. until using for the binding test.
(2) Binding to PGD2 Receptor
To a binding-reaction solution (50 mM Tris/HCl, pH 7.4, 5 mM MgCl2) (0.2 ml) were added the human platelet membrane fraction (0.1 mg) and 5 nM [^3H]PGD2 (115 Ci/mmol), and the mixture was reacted at 4° C. for 90 min. After the reaction, the mixture was filtered through a glass fiber filter paper and washed several times with cooled physiological saline, then the radioactivity retained on the filter paper was measured. The specific-binding ratio was calculated by subtracting the non-specific binding ratio which is the radioactivity similarly measured in the presence of 10 μM PGD2 from the total binding. The inhibitory activity of each compound was expressed as the concentration required for 50% inhibition (IC50), which was determined by depicting a substitution curve by plotting the binding ratio (%) in the presence of each compound, where the binding ratio in the absence of a test compound is 100%.

[4] = target: T2, PGD2 receptor; assay: Antagonistic activity against PGD2 receptor using human platelet (inhibition of PGD2-induced cAMP increase); format: cell-based; details: human platelet; 0.1 μM PGD2; read-out: Inhibitory activity for the increase of cAMP caused by PGD2 in human platelet IC50
Experimental: Experiment 3 Evaluation of Antagonistic Activity Against PGD2 Receptor
Receptor Using Human Platelet
Peripheral blood was collected from a healthy volunteer using a syringe in which 1/9 volume of a citric acid/dextrose solution was previously added. The sample was subjected to centrifugation at 1200 rpm for 10 min to obtain the supernatant (PRP: platelet rich plasma). The resultant PRP was washed 3 times with a washing buffer and the number of platelets was counted with a micro cell counter. A suspension adjusted to contain the platelets at a final concentration of 5×10^8/ml was warmed at 37° C., then subjected to the pre-treatment with 3-isobutyl-1-methylxanthine (0.5 mM) for 5 min. To the suspension was added a test compound diluted at various concentration, and 10 minutes later, 0.1 μM PGD2 was added to induce the reaction 2 minutes later, hydrochloric acid was added to terminate the reaction. The platelet was destroyed with an ultrasonic homogenizer. After centrifugation, the cAMP in the supernatant was determined by radioimmunoassay. PGD2 receptor antagonism of a drug was evaluated as follows: the inhibition rate regarding cAMP increased by the addition of PGD2 was determined at each concentration, and the concentration of the drug required for 50% inhibition (IC50) was calculated.

Row | SMILES | half life of the disappearance [1] [min] | IC50 [2] [nM] | IC50 [3] [nM] | IC50 [4] [nM]
1 | O=C(O)CCC/C=C\C[C@H]1[C@@H]2CC[C@@H](C2)[C@@H]1NC(=O)c1ccc(S(=O)(=O)n2cccc2)s1 [I-1] | 9.4 | 3 | 4.3 | 1.3
2 | O=C(O)COCCCC[C@H]1[C@@H]2CC[C@@H](C2)[C@@H]1NC(=O)c1ccc(S(=O)(=O)n2cccc2)s1 [I-7M-1a] | 26.3 |  |  | 
3 | O=C(O)CCC/C=C\C[C@H]1[C@@H]2CC[C@@H](C2)[C@@H]1NC(=O)c1csc2c(Cc3ccccc3)cccc12 [I-143] | 4.7 | 28 | 2.7 | 1.9
4 | O=C(O)CCC/C=C\C[C@H]1[C@@H]2CC[C@@H](C2)[C@@H]1NC(=O)c1csc2c(Cc3ccoc3)cccc12 [I-170] |  | 27 | 0.92 | 17
5 | O=C(O)CCC/C=C\C[C@H]1[C@@H]2CC[C@@H](C2)[C@@H]1NC(=O)c1ccc(Cc2csc3ccccc23)s1 [I-182] |  | 28 | 61 | 11

The next lines start with the values.

Row | half life of the disappearance [1] [min] | IC50 [2] [nM] | IC50 [3] [nM] | IC50 [4] [nM] | SMILES
6 |  | 12 | 2 | 11 | CC1(C)[C@H]2C[C@H](C/C=C\CCCC(=O)O)[C@@H](NC(=O)c3ccc(S(=O)(=O)n4cccc4)s3)[C@@H]1C2 [II-1]
7 |  | 4.3 | 26 | 35 | CC1(C)[C@H]2C[C@H](C/C=C\CCCC(=O)O)[C@@H](NC(=O)c3ccc(S(=O)(=O)c4ccccc4)s3)[C@@H]1C2 [II-37]
8 |  | 3.6 | 0.96 | 4 | CC1(C)[C@H]2C[C@H](C/C=C\CCCC(=O)O)[C@@H](NC(=O)c3ccc(S(=O)(=O)c4cccs4)s3)[C@@H]1C2 [II-47]
9 |  | 4.4 | 1.5 | 3.9 | Cc1cccn1S(=O)(=O)c1ccc(C(=O)N[C@@H]2[C@@H](C/C=C\CCCC(=O)O)C[C@H]3C[C@@H]2C3(C)C)s1 [II-55]
10 | 11.0 | 14 | 0.1 | 24 | CC1(C)[C@H]2C[C@H](C/C=C\CCCC(=O)O)[C@@H](NC(=O)c3ccc(Sc4cccs4)s3)[C@@H]1C2 [II-59]
11 |  | 4 | 72 | 45 | Cc1cc(S(=O)(=O)c2ccc(C(=O)N[C@@H]3[C@@H](C/C=C\CCCC(=O)O)C[C@H]4C[C@@H]3C4(C)C)s2)cs1 [II-101]
12 |  | 2.6 | 22 | 24 | CC1(C)[C@H]2C[C@H](C/C=C\CCCC(=O)O)[C@@H](NC(=O)c3ccc(S(=O)(=O)c4cccc(O)c4)s3)[C@@H]1C2 [II-117]
13 |  | 45 | 4.6 | 4 | COc1ccccc1Cc1ccc(C(=O)N[C@@H]2[C@@H](C/C=C\CCCC(=O)O)C[C@H]3C[C@@H]2C3(C)C)s1 [II-126]
14 |  | 72 | 32 | 25 | CC1(C)[C@H]2C[C@H](C/C=C\CCCC(=O)O)[C@@H](NC(=O)c3ccc(Cc4cccc(-c5ccccc5)c4)s3)[C@@H]1C2 [II-138]
